Measured values as given in patent publication US7297714B2, “Inhibitors of cathepsin S” (IRM LLC, priority 2003, dated 2007).
pKi: −log10 of the molar value.

Assays:
Assay type in all cases: biochemical
Cathepsin S = Cathepsin S (Homo sapiens, UniProt P25774); test: Cathepsin S inhibition assay (fluorogenic peptide substrate); conditions: Cathepsin S inhibition constant; pH5.5; read-out: Ki Cat. S
From the text: “Inhibition constant”, Ki, is the dissociation constant of the enzyme-inhibitor complex, or the reciprocal of the binding affinity of the inhibitor to the enzyme. For classical inhibition the value of Ki is much greater than the enzyme concentration and the Ki can be measured by monitoring the rate of reaction for a competitive substrate at multiple inhibitor concentrations. The inhibited rates are then fit by nonlinear regression to the following equation: […]
The assumption being made for the classical inhibition described above is that the free inhibitor concentration is equal to the total inhibitor concentration. For inhibitors that have Ki's that are approximately equal to the enzyme concentration [E], the assumption that the free inhibitor concentration is equal to the total inhibitor concentration is no longer valid and an alternative equation has to be fit for determination of the apparent inhibition constant, Ki^app using described methods (Kuzmic, P., K. C. Elrod, et al., Anal Biochem 2000, 286(1), 45-50):
The optimal substrate for cathepsin S, acetyl-histidine-proline-valine-lysine-amino carbamoyl coumarin, was identified from screening a combinatorial library of fluorogenic peptide substrates (Harris, J. L., B. J. Backes, et al., Proc Natl Acad Sci U S A 2000, 97(14), 7754-9). Kinetic measurements are performed in a total reaction volume of 30 μl in 384-well microtiter plates. Cathepsin S, at a final concentration of 0.3-3 nM (active site), is incubated with the compounds at twelve varying concentrations in a buffer containing 100 mM NaAc (pH5.5), 1 mM EDTA, 100 mM NaCl, 0.01% Brij-35 for 20 minutes at room temperature. Control reactions in the absence of inhibitor are performed in replicates of 24. The reactions are initiated by adding the substrate, acetyl-histidine-proline-valine-lysine-amino carbamoyl coumarin, to a final concentration of 50 μM. The rate of substrate hydrolysis is measured by monitoring the increase in fluorescence at an excitation wavelength of 380 nm and an emission wavelength of 450 nm that results from cleavage of the aniline bond in the substrate by the enzyme. The apparent inhibition constants for the compounds are determined from the enzyme progress curves (Kuzmic, P., K. C. Elrod, et al., Anal Biochem 2000, 286(1), 45-50) and are then used to calculate the inhibition constants for competitive inhibitors.

Caspase 1 = target: T1, Caspase 1 (Homo sapiens, UniProt P29466); test: Inhibition Assay for Caspase 1; conditions: Caspase-1 inhibition constant; pH 7.4; read-out: Ki Cas-1
T1 sequence (P29466 120-297 limits assumed): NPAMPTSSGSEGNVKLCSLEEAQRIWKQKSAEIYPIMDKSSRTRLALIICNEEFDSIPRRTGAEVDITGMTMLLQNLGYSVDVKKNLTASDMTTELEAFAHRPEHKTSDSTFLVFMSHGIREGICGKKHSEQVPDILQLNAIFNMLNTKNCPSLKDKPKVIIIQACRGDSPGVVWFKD
T1 sequence (P29466 317-404 limits assumed): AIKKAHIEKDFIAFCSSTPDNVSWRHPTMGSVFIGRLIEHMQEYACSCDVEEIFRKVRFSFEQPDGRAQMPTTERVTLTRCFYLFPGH
Experimental: (§1) The widely used substrate for caspase 1, acetyl-tryptophan-glutamate-histidine-spartic acid-amino carbamoyl coumarin, was used. Kinetic measurements are performed in a total reaction volume of 30 μl in 384-well microtiter plates. Caspase 1, at a final concentration of 0.2-1 nM (active site), is incubated with the compounds at twelve varying concentrations in a buffer containing 20 mM Hepes (pH 7.4), 1 mM EDTA, 100 mM NaCl, 0.1% CHAPS, 10% sucrose, 10 mM DTT for 20 minutes at room temperature. Control reactions in the absence of inhibitor are performed in replicates of 12. The reactions are initiated by adding the substrate to a final concentration of 4 μM. The rate of substrate hydrolysis is measured by monitoring the increase in fluorescence at an excitation wavelength of 380 nm and an emission wavelength of 450 nm that results from cleavage of the aniline bond in the substrate by the enzyme. The apparent inhibition constants for the compounds are determined from the enzyme progress curves (Kuzmic, Elrod et al. 2000) and are then used to calculate the inhibition constants for competitive inhibitors (Km=8 μM).

Caspase 8 = Caspase 8 (Homo sapiens, UniProt Q14790); test: Inhibition Assay for Caspase 8; conditions: Caspase-8 inhibition constant; pH 7.4; read-out: Ki Cas-8
Experimental: as §1, with “for caspase 8, […]-amino carbamoyl” for “for caspase 1, acetyl-tryptophan-glutamate-histidine-spartic acid-amino carbamoyl”, “plates. Caspase 8, at a” for “plates. Caspase 1, at a”, “concentration of 2 μM. The” for “concentration of 4 μM. The”, “competitive inhibitors (Km=25.7 μM).” for “competitive inhibitors (Km=8 μM).”

Cathepsin S, sequence (P25774 115-331, species assumed): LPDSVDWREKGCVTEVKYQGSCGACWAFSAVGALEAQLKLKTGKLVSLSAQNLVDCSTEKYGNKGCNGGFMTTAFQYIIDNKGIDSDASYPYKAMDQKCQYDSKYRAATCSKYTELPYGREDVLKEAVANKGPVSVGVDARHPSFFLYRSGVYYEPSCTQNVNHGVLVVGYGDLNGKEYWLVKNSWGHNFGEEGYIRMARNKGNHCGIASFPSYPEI
Caspase 8, sequence (Q14790 217-374 limits assumed, species assumed): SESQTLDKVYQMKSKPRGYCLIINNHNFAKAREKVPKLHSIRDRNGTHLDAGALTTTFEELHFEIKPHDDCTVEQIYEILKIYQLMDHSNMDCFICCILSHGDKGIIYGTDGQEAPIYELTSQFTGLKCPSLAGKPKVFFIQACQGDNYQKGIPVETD
Caspase 8, sequence (Q14790 385-479 limits assumed, species assumed): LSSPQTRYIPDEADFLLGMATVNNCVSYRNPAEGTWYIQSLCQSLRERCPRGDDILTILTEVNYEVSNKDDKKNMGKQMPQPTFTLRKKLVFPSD

SMILES | pKi (Cathepsin S) | pKi (Caspase 1) | pKi (Caspase 8)
O=C1C[C@H](NC(=O)[C@H](CC2CCCCC2)NS(=O)(=O)c2cccc(OC(F)(F)F)c2)C(O)O1 (stereo partly drawn) [Example 7, (3S)-[3-Cyclohexyl-(2S)-(3-trifluoromethoxy-benzenesulfonylamino)-propionylamino]-4-oxo-butyric acid] | > 7.00 | < 5.00 | < 5.00
O=C1C[C@H](NC(=O)[C@H](CC2CCCC2)NC(=O)N2CCOCC2)C(O)O1 (stereo partly drawn) [Example 2, (3S)-{3-Cyclopentyl-(2S)-[(morpholine-4-carbonyl)-amino]-propionylamino}-4-oxo-butyric acid] | > 7.00 | < 4.00 | < 5.00
O=C1C[C@H](NC(=O)[C@@H](CC(=O)N2CCOCC2)CC2CCCCC2)C(O)O1 (stereo partly drawn) [Example 6, (3S)-{(2R)-Cyclohexylmethyl-4-morpholin-4-yl-4-oxo-butyrylamino}-4-oxo-butyric acid] | > 7.00 | < 4.00 | < 5.00
O=C1C[C@H](NC(=O)O[C@@H](CC2CCCCC2)C(=O)N2CCOCC2)C(O)O1 (stereo partly drawn) [Example 10, (3S)-[2-cyclohexyl-(1S)-(morpholin-4-carbonyl)-ethoxycarbonylamino]-4-oxo-butyric acid] | > 7.00 | < 4.00 | < 4.00
O=C1C[C@H](NC(=O)[C@H](CC2CCCCC2)OC(=O)N2CCOCC2)C(O)O1 (stereo partly drawn) [Example 3, (3S)-{3-cyclohexyl-(2S)-(morpholine-4-carbonyloxy)-propionylamino}-4-oxo-butyric acid] | > 7.00 | < 5.00 | < 5.00
O=C1C[C@H](NC(=O)[C@H](CC2CCCC2)NC(=O)c2ccc(-c3cccc(F)c3)o2)C(O)O1 (stereo partly drawn) [Example 1, (3S)-(3-Cyclopentyl-(2S)-{[5-(3-fluoro-phenyl)-furan-2-carbonyl]-amino}-propionylamino)-4-oxo-butyric acid] | > 7.00 | < 6.00 | < 6.00
O=C1C[C@H](NC(=O)O[C@@H](CC2CCCC2)Cn2cnc3cc(Cl)c(Cl)cc32)C(O)O1 (stereo partly drawn) [Example 5, (3S)-[(1S)-Cyclopentylmethyl-2-(5,6-dichloro-benzoimidazol-1-yl)-ethoxycarbonylamino]-4-oxo-butyric acid] | > 7.00 | < 5.00 | < 5.00
O=C1C[C@H](NC(=O)[C@H](CC2CCCC2)NS(=O)(=O)c2cccc(OC(F)(F)F)c2)C(O)O1 (stereo partly drawn) [Example 8, (3S)-[3-Cyclopentyl-(2S)-(3-trifluoromethoxy-benzenesulfonylamino)-propionylamino]-4-oxo-butyric acid] | > 7.00 | < 4.00 | < 5.00
CC(C)(C)C[C@H](OC(=O)N[C@H]1CC(=O)OC1O)C(=O)N1CCOCC1 (stereo partly drawn) [Example 9, (3S)-[3,3-Dimethyl-(1S)-(morpholine-4-carbonyl)-butoxycarbonylamino]-4-oxo-butyric acid] | > 7.00 | < 4.00 | < 4.00
O=C[C@H](CC(=O)O)NC(=O)[C@@H](CC(=O)N1CCOCC1)CC1CCCC1 [Example 4, (3S)-[(2R)-Cyclopentylmethyl-4-morpholin-4-yl-4-oxo-butyrylamino]-4-oxo-butyric acid] | > 7.00 | < 5.00 | < 5.00
